Assay results from patent US7507739B2, “6-[(substituted)phenyl]triazolopyrimidines as anticancer agents” (Wyeth, priority 2003, dated 2009).
Where two headings read alike, the source gives them in different places. Marks after values point to notes of the source that are not given here.

Experiments:
[1] = test system: DLD1 Human Colon Carcinoma; assay: Human tumor xenograft test, DLD1; type: in vivo; details: days 1, 5, 9, 13
Experimental: The ability of compounds of this invention to inhibit tumor growth in animals is studied in the athymic mouse xenograft standard pharmacological test. Female nu/nu mice in an outbred albino background are obtained from Charles River Laboratories (Wilmington, Mass.). Animals are injected subcutaneously on the flank with the desired tumor cell suspension. Several days later, mice with tumors of approximately 150 mm^3 are selected from those injected (staged) and randomly distributed into groups of 5-10. The day of staging is called day 0. Compounds of the invention, usually formulated in saline (exceptions are noted in tables), are administered to animals by intravenous injection or oral gavage on various schedules starting on day 0 or 1, as noted in the tables. The control group in each experiment is dosed with vehicle on the same schedule. Tumor size is measured every 3-7 days with calipers in two orthogonal dimensions, and tumor volume is calculated from the formula volume=[(length×width^2)/2].
Tumor/Control (T/C) is obtained by dividing the mean tumor volume of the treated group by the mean tumor volume of the control group on each measurement day. A treatment dose is defined as active if it produced a statistically significant T/C of 0.50 or less. A p value≦0.05, determined by one-side Student's t-test, is required for statistical significance. A treatment dose is defined as toxic if more than 10% of the animals died from a compound-related toxicity.

S1-M1 cells = assay: MTS cytotoxicity test with S1-M1 cells (MXR); type: cell-based, human; details: for IC50: Homo sapiens, read-out: IC50 S1-M1; for Ratio: IC50 on S1-M1 cells/IC50 on S1 cells
Text: Human cancer cell lines, unless otherwise noted, are obtained from the American Type Culture Collection (Rockville, Md.). The following drug-sensitive parental cell lines, and their derived drug-resistant counterparts, are obtained from the originators as listed: (a) S1 (parental line from a subclone of human colon carcinoma line LS174T) and derived S1-M1-3.2 (herein called S1-M1) which expresses the MXR drug transporter protein, are provided by Dr. L. Greenberger, Wyeth Research (Rabindran, S. K., He, H., Singh, M., Brown, E., Collins, K. I., Annable, T., and Greenberger, L. M. Reversal of a novel multidrug resistance mechanism in human colon carcinoma cells by fumitremorgin C. Cancer Res., 58:5850-5858,1998); (b) parental HL-60 human promyelocytic leukemia line and derived HL-60/ADR, which expresses the MRP1 drug transporter protein, are provided by Dr. M. Center, University of Kansas (McGrath, T., and Center, M. S. Adriamycin resistance in HL60 cells in the absence of detectable P-glycoprotein. Biochem. Biophys. […] J. Biol. Chem., 261: 7762-7770,1986) via Dr. L. Greenberger, Wyeth Research.
The assay, which is sold in kit form by Promega (Madison, Wis.; CellTiter 96 AQueous Non-Radioactive Cell Proliferation Assay), is based on the conversion by viable cells, but not by dead cells, of the tetrazolium salt, MTS (3-(4,5-dimethylthiazol-2-yl)-5-(3-carboxymethoxyphenyl)-2-(4-sulphophenyl)-2H-tetrazolium, inner salt), into a water-soluble colored formazan which is detected by spectrophotometry. Compounds are tested at nine concentrations, in order to determine IC50 values. For the test procedure, cells are harvested by trypsinization (or, in the case of non-adherent cells, by simple resuspension), washed, counted and distributed to wells of 96-well flat-bottom microtiter plates at 1000 cells per well in 200 μL of medium. In addition, one row of wells on a separate plate received cells as above (“time 0” plate). All plates are incubated at 37° in humidified 5% CO2 in air for about 24 hr.
On day 2, compounds for test are diluted and added to wells. Compounds are dissolved in DMSO at 10 mg/mL. For each compound, nine serial 2-fold dilutions are prepared in DMSO. Ten μL of each dilution in DMSO is transferred to 100 μL of medium, mixed well, and then 5 μL of this dilution is transferred in quadruplicate to wells containing cells. […] Plates are returned to the incubator for three days. At the time of drug addition to the experimental plates, the MTS assay is run on the “time 0” plate. This produced the “time 0 MTS value” which is related to the number of viable cells per well at the time of drug addition.
After three days of culture with test compounds (day 5 overall), the MTS assay is done on all wells of the experimental plates. The absorbance values of the quadruplicate sample wells are averaged and divided by the average of the “time 0” values. […] The nine values for each compound are plotted against concentration, and the concentration that produced a relative color yield half way between the maximum and minimum is taken as the IC50 value.
S1-M1 cells overexpress the MXR transporter which mediates resistance to some chemotherapeutics (Gottesman, M. M., Fojo, T., and Bates, S. E. Miltidrug resistance in cancer: role of ATP-dependent transporters. Nature Rev. Cancer, 2: 48-58, 2002). The IC50 values of representative examples of this invention, as well as reference compounds, on S1-M1 are compared to values on the sensitive parental S1 line.

C[C@H](Nc1c(-c2c(F)cc(OCCCN(C)C)cc2F)c(Cl)nc2ncnn12)C(F)(F)F.Cl [Example 1a, 5-chloro-6-{4-[3-(dimethylamino)propoxy]-2,6-difluorophenyl}-N-[(1S)-2,2,2-trifluoro-1-methylethyl][1,2,4]triazolo[1,5-a]pyrimidin-7-amine hydrogen chloride Salt]
T/C on day 0 ([1]; DLD1, 10 mg/kg IV): 1.00 | T/C on day 7 ([1]; DLD1, 10 mg/kg IV): 0.63 | T/C on day 14 ([1]; DLD1, 10 mg/kg IV): 0.51 | T/C on day 21 ([1]; DLD1, 10 mg/kg IV): 0.58 | T/C on day 0 ([1]; DLD1, 15 mg/kg IV): 1.00 | T/C on day 7 ([1]; DLD1, 15 mg/kg IV): 0.21** | T/C on day 14 ([1]; DLD1, 15 mg/kg IV): 0.25 | T/C on day 21 ([1]; DLD1, 15 mg/kg IV): 0.31 | T/C on day 0 ([1]; DLD1, 20 mg/kg IV): 1.00 | T/C on day 7 ([1]; DLD1, 20 mg/kg IV): 0.31** | toxicity of treatment dose ([1]; DLD1 xenograft mice, 20 mg/kg IV, day 14): Toxic | IC50 (S1-M1 cells; S1-M1 cells, MTS): 75 nM | Ratio (S1-M1 cells): 1.0

CNCCCOc1cc(F)c(-c2c(Cl)nc3ncnn3c2N[C@@H](C)C(F)(F)F)c(F)c1.Cl [Example 2a, 5-Chloro-6-{2,6-difluoro-4-[3-(methylamino)propoxy]phenyl}-N-[(1S)-2,2,2-trifluoro-1-methylethyl][1,2,4]triazolo[1,5-a]pyrimidin-7-amine hydrogen chloride]
T/C on day 0 ([1]; DLD1, 10 mg/kg IV): 1.00 | T/C on day 7 ([1]; DLD1, 10 mg/kg IV): 0.66 | T/C on day 14 ([1]; DLD1, 10 mg/kg IV): 0.65 | T/C on day 21 ([1]; DLD1, 10 mg/kg IV): 0.72 | T/C on day 0 ([1]; DLD1, 15 mg/kg IV): 1.00 | T/C on day 7 ([1]; DLD1, 15 mg/kg IV): 0.59 | T/C on day 14 ([1]; DLD1, 15 mg/kg IV): 0.54 | T/C on day 21 ([1]; DLD1, 15 mg/kg IV): 0.74 | T/C on day 0 ([1]; DLD1, 20 mg/kg IV): 1.00 | T/C on day 7 ([1]; DLD1, 20 mg/kg IV): 0.46* | T/C on day 14 ([1]; DLD1, 20 mg/kg IV): 0.33 | T/C on day 21 ([1]; DLD1, 20 mg/kg IV): 0.53 | IC50 (S1-M1 cells): 69 nM | Ratio (S1-M1 cells): 1.0

CNCCCOc1cc(F)c(-c2c(Cl)nc3ncnn3c2NCC(F)(F)F)c(F)c1.Cl [Example 3a, 5-Chloro-6-{2,6-difluoro-4-[3-(methylamino)propoxy]phenyl}-N-(2,2,2-trifluoroethyl)[1,2,4]triazolo[1,5-a]pyrimidin-7-amine hydrogen chloride Salt]
T/C on day 0 ([1]; DLD1, 10 mg/kg IV): 1.00 | T/C on day 7 ([1]; DLD1, 10 mg/kg IV): 0.77 | T/C on day 14 ([1]; DLD1, 10 mg/kg IV): 0.75 | T/C on day 21 ([1]; DLD1, 10 mg/kg IV): 0.84 | T/C on day 0 ([1]; DLD1, 20 mg/kg IV): 1.00 | T/C on day 7 ([1]; DLD1, 20 mg/kg IV): 0.55 | T/C on day 14 ([1]; DLD1, 20 mg/kg IV): 0.56 | T/C on day 21 ([1]; DLD1, 20 mg/kg IV): 0.73 | T/C on day 0 ([1]; DLD1, 25 mg/kg IV): 1.00 | T/C on day 7 ([1]; DLD1, 25 mg/kg IV): 0.59 | T/C on day 14 ([1]; DLD1, 25 mg/kg IV): 0.46 | T/C on day 21 ([1]; DLD1, 25 mg/kg IV): 0.60 | IC50 (S1-M1 cells; S1-M1 cells, MTS): 71 nM | Ratio (S1-M1 cells): 1.2

CN(C)CCCOc1cc(F)c(-c2c(Cl)nc3ncnn3c2NCC(F)(F)F)c(F)c1.Cl [Example 4a, 5-Chloro-6-{4-[3-(dimethylamino)propoxy]-2,6-difluorophenyl}-N-(2,2,2-trifluoroethyl)[1,2,4]triazolo[1,5-a]pyrimidin-7-amine Hydrogen chloride Salt]
T/C on day 0 ([1]; DLD1, 10 mg/kg IV): 1.00 | T/C on day 7 ([1]; DLD1, 10 mg/kg IV): 0.56 | T/C on day 14 ([1]; DLD1, 10 mg/kg IV): 0.68 | T/C on day 21 ([1]; DLD1, 10 mg/kg IV): 0.74 | T/C on day 0 ([1]; DLD1, 20 mg/kg IV): 1.00 | T/C on day 7 ([1]; DLD1, 20 mg/kg IV): 0.55 | T/C on day 14 ([1]; DLD1, 20 mg/kg IV): 0.44 | T/C on day 21 ([1]; DLD1, 20 mg/kg IV): 0.61 | T/C on day 0 ([1]; DLD1, 25 mg/kg IV): 1.00 | T/C on day 7 ([1]; DLD1, 25 mg/kg IV): 0.63 | T/C on day 14 ([1]; DLD1, 25 mg/kg IV): 0.49 | T/C on day 21 ([1]; DLD1, 25 mg/kg IV): 0.48 | IC50 (S1-M1 cells; S1-M1 cells, MTS): 73 nM | Ratio (S1-M1 cells): 1.0

C[C@H](Nc1c(-c2c(F)cc(OCCCO)cc2F)c(Cl)nc2ncnn12)C(F)(F)F [Example 20, 3-[4-(5-Chloro-7-{[(1S)-2,2,2-trifluoro-1-methylethyl]amino}[1,2,4]triazolo[1,5-a]pyrimidin-6-yl)-3,5-difluorophenoxy]propan-1-ol]
IC50 (S1-M1 cells; S1-M1 cells, MTS): 91 nM | Ratio (S1-M1 cells): 1.1

C[C@H](Nc1c(-c2c(F)cc(OCCCN(C)C)cc2F)c(Br)nc2ncnn12)C(F)(F)F [Example 25, 5-Bromo-6-{4-[3-(dimethylamino)propoxy]-2,6-difluorophenyl}-N-[(1S)-2,2,2-trifluoro-1-methylethyl][1,2,4]triazolo[1,5-a]pyrimidin-7-amine]
IC50 (S1-M1 cells; S1-M1 cells, MTS): 84 nM | Ratio (S1-M1 cells): 0.80

OCCCOc1cc(F)c(-c2c(Cl)nc3ncnn3c2C2CCCCCC2)c(F)c1 [Example 30, 3-[4-(5-Chloro-7-cycloheptyl[1,2,4]triazolo[1,5-a]pyrimidin-6-yl)-3,5-difluorophenoxy]propan-1-ol]
IC50 (S1-M1 cells; S1-M1 cells, MTS): 78 nM | Ratio (S1-M1 cells): 1.2

CNCCCOc1cc(F)c(-c2c(Cl)nc3ncnn3c2C2CCCCCC2)c(F)c1.O=C(O)C(F)(F)F [Example 32, 3-[4-(5-Chloro-7-cycloheptyl[1,2,4]triazolo[1,5-a]pyrimidin-6-yl)-3,5-difluorophenoxy]-N-methylpropan-1-amine trifluoroacetic acid salt]
IC50 (S1-M1 cells; S1-M1 cells, MTS): 9 nM | Ratio (S1-M1 cells): 0.80

CC(=O)O[C@H]1C(=O)[C@@]2(C)[C@H]([C@H](OC(=O)c3ccccc3)[C@]3(O)C[C@H](OC(=O)[C@H](O)[C@@H](NC(=O)c4ccccc4)c4ccccc4)C(C)=C1C3(C)C)[C@]1(OC(C)=O)CO[C@@H]1C[C@@H]2O [Paclitaxel, reference compound]
IC50 (S1-M1 cells; S1-M1 cells, MTS): 4.4 nM | Ratio (S1-M1 cells): 0.54

CC[C@]1(O)C[C@H]2CN(CCc3c([nH]c4ccccc34)[C@@](C(=O)OC)(c3cc4c(cc3OC)N(C=O)[C@H]3[C@@](O)(C(=O)OC)[C@H](OC(C)=O)[C@]5(CC)C=CCN6CC[C@]43[C@@H]65)C2)C1 [Vincristine, reference compound]
IC50 (S1-M1 cells; S1-M1 cells, MTS): 4.6 nM | Ratio (S1-M1 cells): 0.82
